The subject of this experiment is c-MYC in BM cells of patient 5. The experiment in a line: Immunoblot of c-MYC in patient bone marrow cells treated ex vivo. The experiment is classed as cell-based. As to conditions: BM cells of patient 5, 250 and 500 nM, 72 h. Here is the method:
FIGS. 45A-45E illustrate modulation of c-MYC at the protein level in a patient sample. Protein extracts were obtained from bone marrow (BM) cells of patient 5 (FIG. 44D; FIGS. 45A-45D) upon ex vivo treatment with 250 and 500 nM of OTX015 respectively. […] Bone marrow cells from patient 5 were treated with OTX015 at 250 nM and 500 nM and compared to controls exposed to according concentrations with DMSO. Proteins were extracted at 72 h and immunoblotted with appropriate c-MYC antibodies after gel electrophoresis. […] Expression level of cMYC relative to ABL were realised by RQ-PCR at three time points 24, 48 and 72 h (FIG. 45B). Results in FIG. 45B are shown with means±SD from duplicates.
The membranes were blocked with LiCor blocking buffer (LiCor, Lincoln, Nebr., USA) and incubated with the respective primary antibody: anti-BRD4 (Epitomics 5716-1, Burlingame, USA), anti-BRD3 (ab56342, AbCam, UK), anti-BRD2 (ab37633, AbCam, UK), anti c-MYC (sc-764 (N262), Santa Cruz, USA) and anti-GAPDH (Invitrogen 398600, Grand Island, USA). Blots were stained with either goat anti-rabbit InfraRedDye 680RD or goat anti-mouse InfraRedDye 800CWsecondary antibody (LiCor). Membranes were imaged using a LiCor Odyssey scanner. […]

Turning to `Cc1sc2c(c1C)C(c1ccc(Cl)cc1)=N[C@@H](CC(=O)Nc1ccc(O)cc1)c1nnc(C)n1-2` [Compound (1-1), 2-[(6S)-4-(4-chlorophenyl)-2,3,9-trimethyl-6H-thienol[3,2-f]-[1,2,4]triazolo[4,3-a][1,4]diazepin-6-yl]-N-(4-hydroxyphenyl)acetamide dihydrate], the c-MYC protein level result is listed as “downregulation of c-MYC”.

(Values after patent US20160158245A1, “PHARMACEUTICAL FORMULATION CONTAINING THIENOTRIAZOLODIAZEPINE COMPOUNDS” (ONCOETHIX GmbH, priority 2013, published 2016).)
